Measurements published in patent EP2992885A2, “METHOD FOR INHIBITING A LIVER DISEASE” (priority 2014, dated 2016).
Structures can show the parent of a compound that is named as a salt.

Legend:
[1] = tested on: mice fed with HFD; test: HFD-fed mice, 8 weeks: serum and liver lipid levels, body weight, food intake; format: in vivo, C57BL/6J male mice; design: TG / Tot. chol. / HDL chol. / LDL chol.: unit not given here; conditions: for HDL (HDL cholesterol) / LDL (LDL cholesterol) / TG of liver (Triacylglycerol) / TG in serum (Triacylglycerol): HFD for 8 weeks; for TG in serum (Triacylglycerol): means±SE; for HDL chol. / LDL chol. / TG / Tot. chol.: Table 2, HFD mice, unit not given in Table 2 (Table 1 gives mg/dl)
Method: During the 2 month experiments, mice fasted for one night before the experiment was changed from a standard diet (STD) to a HFD and then the mice were randomly divided into 5 groups, including 2 control and 3 treatment groups. Six mice were used in each group. The control mice received either STD or HFD and the protection group was fed HFD with KMUP-1 HCl (2.5 and 5 mg/kg/day), simvastatin (5 mg/kg/day) or a target drug administered by gavage to assess weight gain followed by biochemical analysis. Liver from the protection group supplemented with KMUP-1 HCl (1 mg/kg/day) were used to determine the HMG CoA reductase expression.
Within 2 months, the 3 day food intake average for each animal was measured. The weight gain and plasma lipid levels of each group were determined and compared to the non-treatment control group. […] Agents used in the assays were obtained from Merck & Co. (Kenilworth, NJ, U.S.A.). Triglyceride (TG), total cholesterol, HDL cholesterol and LDL cholesterol in mouse serum were measured by methods used in the clinic. To measure the hepatic TG, isolated liver were cut into small chips.

[2] = tested on: ROCK II; test: ROCK II expression in HepG2 cells; format: cell-based
Method: HepG2 cells were treated with various concentrations of drugs for 24 hours. Reactions were terminated by washing twice with cold PBS, and the cells were then harvested. Proteins in the whole-cell lysate were homogenized in an ice-cold lysis buffer and a protease inhibitor (Sigma-Aldrich, St. Louis, MO, U.S.A.). The homogenate was centrifuged at 90, 000 g for 15 minutes at 4°C, and supernatant was recovered as the total cellular protein. Cytosolic and membrane fractions of HepG2 cells were prepared using a CNM (Cytosol Nuclear Membrane) compartment protein extraction kit (BioChain Institute Inc., Hayward, CA, U.S.A.) according to the manufacturer's instructions. All of the fractionated protein solutions were stored at -80°C until analysis. To measure the expression levels of proteins by drugs, the total cell protein was extracted after incubation with treatments for 24 hours and then Western blotting analysis was performed as described previously.
To confirm that RhoA antagonist C3 exoenzyme (5 µg/ml) and ROCK antagonist Y27632 (10 µM), dissolved in 10% popyleneglycol, can inactivate_the expression of ROCK II, they were added to cells in culture for 24 hours, respectively, to measure the expression of ROCK II and related expressions of PPARγ and ABCA-1 in HepG2 cells.

[3] = tested on: HMG CoA reductase; test: HFD-induced HMG CoA reductase expression in liver, 8 weeks; format: in vivo, mice; conditions: HFD 8 weeks; KMUP-1 HCl 2.5, 5 mg/kg; simvastatin 5 mg/kg, by gavage
Method: During the 2 month experiments, mice fasted for one night before the experiment was changed from a standard diet (STD) to a HFD and then the mice were randomly divided into 5 groups, including 2 control and 3 treatment groups. Six mice were used in each group. The control mice received either STD or HFD and the protection group was fed HFD with KMUP-1 HCl (2.5 and 5 mg/kg/day), simvastatin (5 mg/kg/day) or a target drug administered by gavage to assess weight gain followed by biochemical analysis. […]
The obtained protein extract was boiled to a ratio of 4:1 with a sample buffer (Tris 100 mM, pH 6.8, glycerol 20%, SDS 4% and bromophenol blue 0.2%).
The blot was then incubated with anti-mouse or anti-goat IgG linked to alkaline phosphatase (1:1000) for 1 hour.

## Cn1c(=O)c2c(ncn2CCN2CCN(c3ccccc3Cl)CC2)n(C)c1=O [KMUP-1, 7-[2-[4-(2-chlorophenyl)piperazinyl]ethyl]-1,3-dimethyl xanthine]
[1]; 2.5mg/kg by gavage
  HDL (HDL cholesterol): 103.6 ± 4.2 mg/dL
  LDL (LDL cholesterol): 14.2 ± 1.4 mg/dL
  TG of liver (Triacylglycerol): 28.4 ± 3.6 mg/dL
  TG in serum (Triacylglycerol): 74.5 ± 5.1 mg/dL
[1]; 5mg/kg by gavage
  HDL (HDL cholesterol): 118.3 ± 5.7 mg/dL
  LDL (LDL cholesterol): 14.2 ± 2.2 mg/dL
  TG of liver (Triacylglycerol): 26.12 ± 3.1 mg/dL
  TG in serum (Triacylglycerol): 72.7 ± 4.7 mg/dL

## C[C@@H](N)[C@H]1CC[C@H](C(=O)Nc2ccncc2)CC1 [Y27632]
[2]; HepG2, 24 hours, C3 exoenzyme 5 µg/ml, Y27632 10 µM
  ROCK II expression (Fig. 24A): reduced

## CCC(C)(C)C(=O)O[C@H]1C[C@@H](C)C=C2C=C[C@H](C)[C@H](CC[C@@H]3C[C@@H](O)CC(=O)O3)[C@H]21 [simvastatin, reference compound]
[1]; 5mg/kg by gavage
  HDL (HDL cholesterol): 103.2 ± 2.5 mg/dL
  LDL (LDL cholesterol): 15.3 ± 1.3 mg/dL
  TG of liver (Triacylglycerol): 35.5±2.** mg/dl
  TG in serum (Triacylglycerol): 82.7 ± 6.3 mg/dL

## Cn1c(=O)c2c(ncn2CCN2CCN(c3ccccc3Cl)CC2)n(C)c1=O [KMUP-1 HCl, 7-[2-[4-(2-chlorophenyl)piperazinyl]ethyl]-1,3-dimethylxanthine HCl complex]
[3]
  HFD-induced downregulation of HMG CoA reductase expression in liver: significantly reversed
[1]; Dose 2.5 mg/kg
  HDL chol.: 103.6± 4.2
  LDL chol.: 14.2± 1.4
  TG: 74.5± 5.1
  Tot. chol.: 133± 5.1
[1]; Dose 5 mg/kg
  HDL chol.: 118.3± 5.7
  LDL chol.: 14.2± 2.2
  TG: 72.67± 4.7
  Tot. chol.: 125.5± 9.8

## 8-(p-chloro-phenylthio)guanosine-3,5-monophosphorothioate [Rp-8-pCPT-cGMPS]
[2]; HepG2, 10µM cGMP antagonist alone
  ROCK II expression (Fig. 24B): increased
